From ChEMBL document CHEMBL5360586, “Purpurascenines A-C, Azepino-Indole Alkaloids from Cortinarius purpurascens: Isolation, Biosynthesis, and Activity Studies on the 5-HT2A Receptor” (J Nat Prod, 2023)
Activity calls are given as the source filed them. No cut-off for these calls is given here.

Assays:
PC-3 [1] = experiment: Antiproliferative activity against human PC-3 cells assessed as inhibition of cell growth measured after 48 hrs by resazurin staining based analysis; format: functional; conditions: PC-3, 48 h
[2] = target: T1, 5-hydroxytryptamine receptor 2A (Homo sapiens, UniProt P28223); experiment: Agonist activity at N-terminal HA-tagged human 5HT2A receptor transfected in CHO-K1 cells co-expressing C-terminal EYFP assessed as maximal efficacy at 10^-4 M measured for 5.5 hrs in presence of serotonin by ONE-Glo reagent based luciferase assay; format: functional, cell-based; conditions: filed as agonist, dose 0.0001 M
T1 sequence (P28223 whole entry): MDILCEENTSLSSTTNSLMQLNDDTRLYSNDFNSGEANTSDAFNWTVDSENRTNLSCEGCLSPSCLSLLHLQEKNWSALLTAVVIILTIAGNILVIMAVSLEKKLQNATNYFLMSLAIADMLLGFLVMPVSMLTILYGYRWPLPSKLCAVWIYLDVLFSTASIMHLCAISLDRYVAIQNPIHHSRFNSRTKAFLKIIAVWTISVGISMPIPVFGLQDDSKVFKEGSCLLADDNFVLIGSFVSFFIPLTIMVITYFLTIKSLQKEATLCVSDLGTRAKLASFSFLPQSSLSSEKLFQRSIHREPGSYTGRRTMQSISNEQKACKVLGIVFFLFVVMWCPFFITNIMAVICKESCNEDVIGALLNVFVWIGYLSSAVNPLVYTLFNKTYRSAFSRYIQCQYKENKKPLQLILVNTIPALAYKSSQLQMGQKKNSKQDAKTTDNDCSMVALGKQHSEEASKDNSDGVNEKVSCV

PC-3 [3] = experiment: Antiproliferative activity against human PC-3 cells assessed as inhibition of cell growth at 100 uM measured after 48 hrs by resazurin staining based analysis; format: functional; set-up: scale not given: the % may be the effect or the level left
HCT-116 [4] = experiment: Antiproliferative activity against human HCT-116 cells assessed as inhibition of cell growth measured after 48 hrs by resazurin staining based analysis; format: functional; conditions: HCT-116, 48 h
[5] = target: T1, 5-hydroxytryptamine receptor 2A; experiment: Agonist activity at N-terminal HA-tagged human 5HT2A receptor transfected in CHO-K1 cells co-expressing C-terminal EYFP measured for 5.5 hrs in presence of serotonin by ONE-Glo reagent based luciferase assay; format: functional, cell-based
[6] = target: T1, 5-hydroxytryptamine receptor 2A; experiment: Agonist activity at N-terminal HA-tagged human 5HT2A receptor transfected in CHO-K1 cells co-expressing C-terminal EYFP measured for 5.5 hrs by ONE-Glo reagent based luciferase assay; format: functional, cell-based
MCF7 [7] = experiment: Antiproliferative activity against human MCF7 cells assessed as inhibition of cell growth measured after 48 hrs by resazurin staining based analysis; format: functional; conditions: MCF7, 48 h
[8] = target: T1, 5-hydroxytryptamine receptor 2A; experiment: Agonist activity at N-terminal HA-tagged human 5HT2A receptor transfected in CHO-K1 cells co-expressing C-terminal EYFP assessed as maximal efficacy at 10^-11 M to 10^-5 M measured for 5.5 hrs by ONE-Glo reagent based luciferase assay relative to control; format: functional, cell-based
HCT-116 [9] = experiment: Antiproliferative activity against human HCT-116 cells assessed as inhibition of cell growth upto 100 uM measured after 48 hrs by resazurin staining based analysis; format: functional
MCF7 [10] = experiment: Antiproliferative activity against human MCF7 cells assessed as inhibition of cell growth upto 100 uM measured after 48 hrs by resazurin staining based analysis; format: functional
PC-3 [11] = experiment: Antiproliferative activity against human PC-3 cells assessed as inhibition of cell growth upto 100 uM measured after 48 hrs by resazurin staining based analysis; format: functional

Structure (SMILES) | IC50 (PC-3 [1]) | Emax [2] | Activity (PC-3 [3]) | IC50 (HCT-116 [4]) | EC50 [5] | EC50 [6] | IC50 (MCF7 [7]) | Emax [8] | Activity (HCT-116 [9]) | Activity (MCF7 [10]) | Activity (PC-3 [11])
CC1=N[C@H](C(=O)O)Cc2c[nH]c3c(O)ccc1c23 | > 100 µM | 52% | ~30% | > 100 µM | 0.0254 µM | > 10 µM | > 100 µM | 22% |  |  | 
NCCc1c[nH]c2ccc(O)cc12 |  |  |  |  |  |  |  |  | inactive | inactive | inactive
